Results taken from PubChem BioAssay AID248 (DTP/NCI, 2004).
Where “and” joins values, the source holds several entries; their conditions need not be identical. Identical values can stand only once. Inconclusive results and toxic doses are left out. Rule as the data show it: active = T/C of 150% or more; inactive = T/C below 125%.

Tested on: L1210 leukemia ip in BDF1 mice, survival T/C
Test: NCI In Vivo Anticancer Drug Screen. Data for tumor model L1210 Leukemia (intraperitoneal) in B6D2F1 (BDF1) mice
Conditions: endpoint: mean survival time, higher = longer survival
Outline: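 Survival endpoint. Drug-treated group vs vehicle group, expressed as T divided by C. Tumor passaged by transplantation.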

[1] = dose: 100.0 mg/kg/injection, schedule: Q04DX002 (ip), vehicle: saline
[2] = dose: 100.0 mg/kg/injection, schedule: Q04DX003 (ip), vehicle: saline
[3] = dose: 200.0 mg/kg/injection, schedule: Q04DX002 (ip), vehicle: saline
[4] = dose: 200.0 mg/kg/injection, schedule: Q04DX003 (ip), vehicle: saline
[5] = dose: 400.0 mg/kg/injection, schedule: Q04DX002 (ip), vehicle: saline
[6] = dose: 400.0 mg/kg/injection, schedule: Q04DX003 (ip), vehicle: saline
[7] = dose: 100.0 mg/kg/injection, schedule: Q01DX001 (ip), vehicle: saline
[8] = dose: 200.0 mg/kg/injection, schedule: Q01DX001 (ip), vehicle: saline
[9] = dose: 400.0 mg/kg/injection, schedule: Q01DX001 (ip), vehicle: saline
[10] = dose: 50.0 mg/kg/injection, schedule: Q01DX009 (ip), vehicle: Klucel (hydroxypropylcellulose) (HPC)
[11] = dose: 100.0 mg/kg/injection, schedule: Q01DX009 (ip), vehicle: Klucel (hydroxypropylcellulose) (HPC)
[12] = dose: 100.0 mg/kg/injection, schedule: Q01DX001 (ip), vehicle: carboxymethylcellulose (CMC)
[13] = dose: 200.0 mg/kg/injection, schedule: Q01DX001 (ip), vehicle: carboxymethylcellulose (CMC)
[14] = dose: 400.0 mg/kg/injection, schedule: Q01DX001 (ip), vehicle: carboxymethylcellulose (CMC)
[15] = dose: 100.0 mg/kg/injection, schedule: Q04DX003 (ip), vehicle: Klucel (hydroxypropylcellulose) (HPC)
[16] = dose: 200.0 mg/kg/injection, schedule: Q04DX003 (ip), vehicle: Klucel (hydroxypropylcellulose) (HPC)

Measured: T/C

C1OCC2OC12 (configuration not stated)
inactive: dose: 100.0 mg/kg/injection, schedule: Q01DX009 (ip), vehicle: saline 97 % of control and 88 % of control | [1] 97 % of control and 102 % of control | [2] 101 % of control | dose: 200.0 mg/kg/injection, schedule: Q01DX009 (ip), vehicle: saline 100 % of control and 87 % of control | [3] 100 % of control and 101 % of control | [4] 109 % of control | dose: 400.0 mg/kg/injection, schedule: Q01DX009 (ip), vehicle: saline 105 % of control and 87 % of control | [5] 104 % of control and 111 % of control | [6] 101 % of control

OCC1OC(n2ncc3c(=S)nc[nH]c32)C(O)C1O (configuration not stated)
inactive: dose: 12.5 mg/kg/injection, schedule: Q01DX005 (ip), vehicle: other 103 % of control | dose: 25.0 mg/kg/injection, schedule: Q01DX005 (ip), vehicle: other 95 % of control | dose: 50.0 mg/kg/injection, schedule: Q01DX005 (ip), vehicle: other 97 % of control | dose: 100.0 mg/kg/injection, schedule: Q01DX005 (ip), vehicle: other 98 % of control | dose: 200.0 mg/kg/injection, schedule: Q01DX005 (ip), vehicle: other 98 % of control

CCC(C)(N)C(=O)O (configuration not stated)
inactive: [7] 102 % of control | [8] 106 % of control | [9] 102 % of control

O=Cc1ccc(O)c(CN2CCCCC2)c1
inactive: dose: 6.25 mg/kg/injection, schedule: Q01DX009 (ip), vehicle: saline 94 % of control | dose: 6.25 mg/kg/injection, schedule: Q04DX003 (ip), vehicle: saline 100 % of control | dose: 12.5 mg/kg/injection, schedule: Q01DX009 (ip), vehicle: saline 107 % of control | dose: 12.5 mg/kg/injection, schedule: Q04DX003 (ip), vehicle: saline 96 % of control | dose: 25.0 mg/kg/injection, schedule: Q01DX009 (ip), vehicle: saline 96 % of control | dose: 25.0 mg/kg/injection, schedule: Q04DX003 (ip), vehicle: saline 103 % of control

Cc1ccc(C(C)NC2=NCCO2)c(C)c1 (configuration not stated)
inactive: dose: 100.0 mg/kg/injection, schedule: Q04DX003 (ip), vehicle: saline with Tween-80 105 % of control

CCc1ccccc1NC(=O)SCCSC(=O)Nc1ccccc1CC
inactive: dose: 25.0 mg/kg/injection, schedule: Q01DX009 (ip), vehicle: Klucel (hydroxypropylcellulose) (HPC) 91 % of control | [10] 102 % of control | [11] 96 % of control and 87 % of control | dose: 400.0 mg/kg/injection, schedule: Q01DX009 (ip), vehicle: Klucel (hydroxypropylcellulose) (HPC) 104 % of control

Nc1nc2c(ncn2C2OC(CO)C(O)C2O)c(=O)[nH]1 (configuration not stated)
inactive: dose: 5.0 mg/kg/injection, schedule: Q01DX001 (ip), vehicle: saline 102 % of control | dose: 10.0 mg/kg/injection, schedule: Q01DX001 (ip), vehicle: saline 105 % of control | dose: 20.0 mg/kg/injection, schedule: Q01DX001 (ip), vehicle: saline 97 % of control | dose: 40.0 mg/kg/injection, schedule: Q01DX001 (ip), vehicle: saline 103 % of control | dose: 80.0 mg/kg/injection, schedule: Q01DX001 (ip), vehicle: saline 108 % of control | [12] 100 % of control | [7] 101 % of control and 105 % of control | [13] 97 % of control | [8] 101 % of control | [14] 97 % of control

CNC(=S)N/N=C(\C=N\NC(=S)NC)c1ccc(-c2ccccc2)cc1
inactive: dose: 100.0 mg/kg/injection, schedule: Q04DX002 (ip), vehicle: Klucel (hydroxypropylcellulose) (HPC) 89 % of control | dose: 200.0 mg/kg/injection, schedule: Q04DX002 (ip), vehicle: Klucel (hydroxypropylcellulose) (HPC) 92 % of control | dose: 400.0 mg/kg/injection, schedule: Q04DX002 (ip), vehicle: Klucel (hydroxypropylcellulose) (HPC) 92 % of control

ClC1=C(Cl)C2(Cl)C3(Cl)C(Cl)=C(Cl)C(Cl)(C3c3ccccc3)C2(Cl)C1c1ccccc1 (configuration not stated)
inactive: dose: 50.0 mg/kg/injection, schedule: Q04DX003 (ip), vehicle: Klucel (hydroxypropylcellulose) (HPC) 94 % of control | dose: 100.0 mg/kg/injection, schedule: Q01DX009 (ip), vehicle: saline sonified 96 % of control | [15] 97 % of control | dose: 200.0 mg/kg/injection, schedule: Q01DX009 (ip), vehicle: saline sonified 96 % of control | [16] 89 % of control | dose: 400.0 mg/kg/injection, schedule: Q01DX009 (ip), vehicle: saline sonified 91 % of control

CCCCCOC(=O)C1(C)OC1c1ccccc1 (configuration not stated)
inactive: [1] 108 % of control | [3] 93 % of control | [5] 93 % of control

CN(C)C(=O)Nc1nc2ccccc2s1
inactive: dose: 100.0 mg/kg/injection, schedule: Q04DX002 (ip), vehicle: other 88 % of control and 92 % of control | dose: 100.0 mg/kg/injection, schedule: Q04DX003 (ip), vehicle: other 96 % of control and 120 % of control | dose: 200.0 mg/kg/injection, schedule: Q04DX002 (ip), vehicle: other 97 % of control and 100 % of control | dose: 200.0 mg/kg/injection, schedule: Q04DX003 (ip), vehicle: other 99 % of control and 105 % of control | dose: 400.0 mg/kg/injection, schedule: Q04DX002 (ip), vehicle: other 95 % of control and 103 % of control

CN1CCN(/N=N/N2CCN(C)CC2)CC1
inactive: dose: 100.0 mg/kg/injection, schedule: Q01DX001 (ip), vehicle: Klucel (hydroxypropylcellulose) (HPC) 105 % of control | dose: 200.0 mg/kg/injection, schedule: Q01DX001 (ip), vehicle: Klucel (hydroxypropylcellulose) (HPC) 101 % of control | dose: 400.0 mg/kg/injection, schedule: Q01DX001 (ip), vehicle: Klucel (hydroxypropylcellulose) (HPC) 100 % of control

O=C(Nc1ccc(F)cc1)Nc1cccc(Cl)c1
inactive: dose: 50.0 mg/kg/injection, schedule: Q01DX001 (ip), vehicle: carboxymethylcellulose (CMC) 101 % of control | [12] 101 % of control | [13] 93 % of control | [14] 106 % of control

O=C(O)CCCc1cc(O)c2c(c1O)C(=O)c1ccccc1C2=O
inactive: dose: 100.0 mg/kg/injection, schedule: Q01DX001 (ip), vehicle: saline sonified 98 % of control | dose: 200.0 mg/kg/injection, schedule: Q01DX001 (ip), vehicle: saline sonified 102 % of control | dose: 400.0 mg/kg/injection, schedule: Q01DX001 (ip), vehicle: saline sonified 118 % of control

Cc1[nH][nH]c(=O)c1N=Nc1ccccc1
inactive: [10] 94 % of control | [11] 98 % of control | dose: 200.0 mg/kg/injection, schedule: Q01DX009 (ip), vehicle: Klucel (hydroxypropylcellulose) (HPC) 98 % of control

CCCCCCC/C=C/c1c(C)[nH]c2ccccc2c1=O
inactive: [15] 96 % of control | [16] 93 % of control | dose: 400.0 mg/kg/injection, schedule: Q04DX003 (ip), vehicle: Klucel (hydroxypropylcellulose) (HPC) 89 % of control

COC1OC2COc3ccccc3OC2C(NC(N)=O)C1O (configuration not stated)
inactive: dose: 100.0 mg/kg/injection, schedule: Q01DX009 (ip), vehicle: saline with Tween-80 97 % of control | dose: 200.0 mg/kg/injection, schedule: Q01DX009 (ip), vehicle: saline with Tween-80 100 % of control | dose: 400.0 mg/kg/injection, schedule: Q01DX009 (ip), vehicle: saline with Tween-80 91 % of control

O=C(C1C2C=CC(CC2)C1C(=O)N1CCOCC1)N1CCOCC1 (configuration not stated)
inactive: [2] 100 % of control | [4] 96 % of control | [6] 96 % of control

OCCN1CCC(CCCC2CCN(CCO)CC2)CC1
inactive: dose: 10.0 mg/kg/injection, schedule: Q01DX Z (ip), vehicle: saline 94 % of control | dose: 30.0 mg/kg/injection, schedule: Q01DX Z (ip), vehicle: saline 92 % of control | dose: 100.0 mg/kg/injection, schedule: Q01DX Z (ip), vehicle: saline 94 % of control

CC(C)S.[Pb]
inactive: dose: 100.0 mg/kg/injection, schedule: Q04DX002 (ip), vehicle: gum acacia 100 % of control | dose: 200.0 mg/kg/injection, schedule: Q04DX002 (ip), vehicle: gum acacia 100 % of control | dose: 400.0 mg/kg/injection, schedule: Q04DX002 (ip), vehicle: gum acacia 89 % of control

Ic1cccc(/C=N/Nc2nnc(N/N=C/c3cccc(I)c3)c3ccccc23)c1
inactive: dose: 50.0 mg/kg/injection, schedule: Q01DX001 (ip), vehicle: saline 102 % of control | [7] 102 % of control | [8] 102 % of control | [9] 108 % of control
